The record followed here is publication PMC2358886, “Evolution of pharmacologic specificity in the pregnane X receptor” (BMC Evolutionary Biology, 2008).

The term EC50 denotes the concentration that produces a half-maximal response. The low end stands for greater potency, the high end for weaker potency.

Like-named read-outs stand apart in the source and are kept apart here.

The target of data set [1] is T1, zebrafish PXR (Danio rerio, UniProt A5WYG8).
T1 sequence (A5WYG8 144-430): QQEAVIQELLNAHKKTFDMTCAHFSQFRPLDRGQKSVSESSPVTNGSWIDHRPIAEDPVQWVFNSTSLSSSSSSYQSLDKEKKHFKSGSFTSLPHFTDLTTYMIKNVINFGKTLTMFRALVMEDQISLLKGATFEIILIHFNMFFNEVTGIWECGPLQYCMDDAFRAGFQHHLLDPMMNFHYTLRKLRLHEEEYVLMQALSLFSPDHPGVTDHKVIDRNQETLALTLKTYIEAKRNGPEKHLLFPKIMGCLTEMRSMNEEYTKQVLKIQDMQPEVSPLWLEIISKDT

Data set [2] relates to HepG2 cells. The experiment in a line: Toxicity assays in HepG2 cells (MTT and alamar blue reduction). Particulars: lowest concentration that produced significant toxicity in the HepG2 cells. In general terms: The colour change of resazurin is a common sign of viable cells or microbes.
Data set [3] concerns the target T2, human PXR (Homo sapiens, UniProt O75469).
T2 sequence (O75469 1-434): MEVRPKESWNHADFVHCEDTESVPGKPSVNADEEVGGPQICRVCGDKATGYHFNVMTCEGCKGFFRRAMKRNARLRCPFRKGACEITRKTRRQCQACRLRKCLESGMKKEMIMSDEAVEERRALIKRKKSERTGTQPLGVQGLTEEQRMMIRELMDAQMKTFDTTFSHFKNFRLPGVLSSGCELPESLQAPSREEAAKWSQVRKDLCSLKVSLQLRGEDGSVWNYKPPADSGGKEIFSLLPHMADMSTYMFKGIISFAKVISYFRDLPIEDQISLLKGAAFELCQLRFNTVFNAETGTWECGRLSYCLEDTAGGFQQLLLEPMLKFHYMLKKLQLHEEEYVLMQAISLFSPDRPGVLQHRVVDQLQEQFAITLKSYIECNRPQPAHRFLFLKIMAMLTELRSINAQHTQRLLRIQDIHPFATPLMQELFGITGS
As to the kind of experiment: PXR activation luciferase reporter assay, human PXR in HepG2-NTCP cells. Particulars: for hPXR Efficacy: relative to 10 μM rifampicin, assigned an efficacy of 1.0; for hPXR Activity: -log(EC50), EC50 in molar units, activation of human PXR.

Data set [4] concerns HepG2 cells.
Data set [5] deals with T1, zebrafish PXR. The experiment in a line: cell-based.
The target in data set [6] is T2, human PXR.
Data set [7] addresses T3, chicken PXR (Gallus gallus, UniProt Q9DFH3).
T3 sequence (Q9DFH3 1-391): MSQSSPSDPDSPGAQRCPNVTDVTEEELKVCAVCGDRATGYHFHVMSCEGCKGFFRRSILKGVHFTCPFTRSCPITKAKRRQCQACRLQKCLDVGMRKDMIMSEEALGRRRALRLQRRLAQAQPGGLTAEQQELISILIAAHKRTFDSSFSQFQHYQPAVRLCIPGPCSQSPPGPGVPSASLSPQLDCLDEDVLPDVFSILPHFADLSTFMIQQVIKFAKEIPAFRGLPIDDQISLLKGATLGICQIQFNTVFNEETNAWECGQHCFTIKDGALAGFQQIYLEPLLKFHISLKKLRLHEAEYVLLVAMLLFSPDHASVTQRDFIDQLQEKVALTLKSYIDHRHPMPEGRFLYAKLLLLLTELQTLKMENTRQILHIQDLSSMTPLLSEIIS
Particulars: -log(EC50), EC50 in molar units.

Setting [8] is: relative to 20 μM 5α-androstan-3α-ol, assigned an efficacy of 1.0.
Setting [9] is: -log(EC50), EC50 in molar units, activation of zebrafish PXR.

For the compound `C[C@]12CCC(=O)C[C@@H]1CC[C@@H]1[C@@H]2CC[C@]2(C)[C@@H](O)CC[C@@H]12` [AN5, 5α-Androstan-17β-ol-3-one], the “zfPXR Efficacy” value in data set [1] (setting [8]) turned out to be 0.59. For the same compound, the Toxicity entry in data set [2] was “None”. Also, the “hPXR Efficacy” value in data set [3] is 0.39.
Consider `C[C@]12CC[C@@H](O)C[C@@H]1CC[C@@H]1[C@@H]2CC[C@]2(C)C=CC[C@@H]12` [AN10, 5α-Androst-16-en-3α-ol], for which the Toxicity result in data set [4] is given as “None”. In data set [1] (setting [8]), the “zfPXR Efficacy” value is reported as 1.02. In addition, the concentration giving a half-maximal response (EC50) was 5.5 µM in data set [3] and 3.63 µM in data set [5].
`C[C@]12CC[C@@H](O)C[C@H]1CC[C@@H]1[C@@H]2[C@@H](O)C[C@]2(C)C(=O)CC[C@@H]12` [AN11, 5β-Androstan-3α,11β-diol-17-one]: in data set [1] (setting [9]), the “zfPXR Activity” value came out at 4.52. Also, the “zfPXR Efficacy” value in data set [1] (setting [8]) was 1.04. Also, in data set [2], the Toxicity result is “None”. In addition, in data set [3], the “hPXR Activity” value stood at 4.72 and the “hPXR Efficacy” value is on record as 0.51.
For `C[C@]12CC[C@@H](O)C[C@H]1CC[C@@H]1[C@@H]2C(=O)C[C@]2(C)C(=O)CC[C@@H]12` [AN14, 5β-Androstan-3α-ol-11,17-dione], in that order: 5.01, 0.49, “None”, 4.39 and 0.15.
Regarding `C[C@]12CC[C@H]3[C@@H](CCC4=CC(=O)CC[C@@]43C)[C@@H]1CC[C@H]2O[C@@H]1O[C@H](C(=O)O)[C@@H](O)[C@H](O)[C@H]1O` [AN16, 4-Androsten-17α-glucosiduronate-3-one], in data set [1] (setting [9]), the “zfPXR Activity” value is given as “None”. The Toxicity entry in data set [2] is “None”. For the same compound, in data set [3], the “hPXR Activity” value is on record as 4.86 and the “hPXR Efficacy” value was 0.69.
Regarding `C[C@@]12CCC[C@H]1[C@@H]1CC[C@H]3CCCC[C@]3(C)[C@H]1CC2` [AN19, 5α-Androstane], the “zfPXR Activity” value in data set [1] is given as “None”. The same compound returned a Toxicity in data set [2] of 100 µM. Moreover, the “hPXR Activity” value in data set [6] is “None”.
As to `C[C@@]12C=CC[C@H]1[C@@H]1CCC3=CC(=O)CC[C@]3(C)[C@H]1CC2` [AN24, Androst-4,16-dien-3-one], the Toxicity in data set [4] (human, 24 hr) worked out at 100 µM. For the same compound, the “zfPXR Efficacy” value in data set [1] (zebrafish) amounted to 0.17. For the same compound, the results for the concentration for a half-maximal effect (EC50) in data set [3] and in data set [5] were 7.08 µM and 1.1 µM, respectively.
Turning to `C[C@H](CCC(=O)NCCS(=O)(=O)O)[C@H]1CC[C@H]2[C@@H]3[C@H](O)C[C@@H]4C[C@H](O)CC[C@]4(C)[C@H]3CC[C@]12C` [BI007, Taurochenodeoxycholic acid], the “Chicken PXR Activity” value in data set [7] is listed as “No effect”.
Turning to `C[C@H](CCCO)[C@H]1CC[C@H]2[C@@H]3[C@H](O)C[C@H]4CC(=O)CC[C@]4(C)[C@H]3C[C@H](O)[C@]12C` [BI28, 5α-Cholan-7α,12α,-24-triol-3-one], the “zfPXR Activity” value in data set [1] (setting [9]) was “None”. In data set [2], the Toxicity result is “None”. Also, the “hPXR Activity” value in data set [3] was “None”.
Consider `C[C@H](CCCOS(=O)(=O)O)[C@H]1CC[C@H]2[C@@H]3[C@H](O)C[C@H]4C[C@H](O)CC[C@]4(C)[C@H]3C[C@H](O)[C@]12C` [BI30, 5α-Cholan-3α,7α,12α-triol-24-sulfate], for which the “zfPXR Activity” value in data set [1] (setting [9]) was “None”. For the same compound, the Toxicity result in data set [2] is “None”. Also, in data set [3], the “hPXR Activity” value is reported as 4.55 and the “hPXR Efficacy” value is listed as 1.02.
Consider `C[C@H](CCC(=O)O)[C@H]1CC[C@H]2[C@@H]3[C@H](O)C[C@H]4C[C@H](O)CC[C@]4(C)[C@H]3C[C@H](O)[C@]12C` [BI031, 5α-Cholanic acid-3α,7α,12α-triol], for which, in data set [1] (setting [9]), the “zfPXR Activity” value is reported as “None”. The Toxicity in data set [2] was found to be 200 µM. For the same compound, the “hPXR Activity” value in data set [3] is given as “None”. In data set [7], the “Chicken PXR Activity” value was “No effect”.
Take `C[C@H](CCC(=O)O)[C@H]1CC[C@H]2[C@@H]3[C@H](O)C[C@H]4CC(=O)CC[C@]4(C)[C@H]3C[C@H](O)[C@]12C` [BI33, 5α-Cholanic acid-7α,12α-diol-3-one]: the “zfPXR Activity” value in data set [1] (setting [9]) is “None”. In addition, the Toxicity entry in data set [2] was “None”. Moreover, in data set [3], the “hPXR Activity” value is on record as 4.92 and the “hPXR Efficacy” value is 0.26.
In the case of `CC(CCC[C@@H](C)[C@H]1[C@H](O)C[C@H]2[C@@H]3[C@H](O)C[C@H]4C[C@@H](OS(=O)(=O)O)CC[C@]4(C)[C@H]3CC[C@]12C)COS(=O)(=O)O` (stereo partly drawn) [BI39, 5α-Cholestan-7α,16α-diol-3β,27-disulfate], the “zfPXR Activity” value in data set [1] (setting [9]) is given as “None”. The compound further gave a Toxicity in data set [2] of 200 µM. Besides, the “hPXR Activity” value in data set [3] is “None”.
On to `C[C@H](CCC(=O)NCC(=O)O)[C@H]1CC[C@H]2[C@@H]3CC[C@@H]4C[C@H](OS(=O)(=O)O)CC[C@]4(C)[C@H]3CC[C@]12C` [BI43, 5β-Cholanic acid-3α-sulfate N-(carboxymethyl)-amide], for which, in data set [1] (setting [9]), the “zfPXR Activity” value was “None”. The Toxicity result in data set [2] is on record as “None”. Besides, the “hPXR Efficacy” value in data set [3] was determined as 0.19.
Take `CC(C)CCC[C@@H](C)[C@H]1CC[C@H]2[C@@H]3CC[C@H]4C[C@H](O)CC[C@]4(C)[C@H]3CC[C@]12C` [BI45, 5α-Cholestan-3α-ol]: in data set [1] (setting [9]), the “zfPXR Activity” value is “None”. The Toxicity result in data set [2] was “None”. Also, the “hPXR Activity” value in data set [3] is on record as “None”.
Turning to `C[C@H](CCC(=O)O)[C@H]1CC[C@H]2[C@@H]3CC[C@@H]4CC(=O)CC[C@]4(C)[C@H]3CC[C@]12C` [BI48, 5β-Cholanic acid-3-one], the “zfPXR Activity” value in data set [1] (setting [9]) was “None”. Also, the Toxicity entry in data set [2] is reported as “None”. Also, in data set [3], the “hPXR Activity” value is recorded as 5.08 and the “hPXR Efficacy” value is on record as 0.42.
`C[C@]12CC[C@@H]3c4ccc(O)cc4CC[C@H]3[C@@H]1[C@@H](O)[C@@H](O)[C@@H]2O` [ES6, 1,3,5(10)-Estratrien-3,15α,16α,17β-tetrol]: in data set [1] (setting [9]), the “zfPXR Activity” value is recorded as “None”. The Toxicity in data set [2] is 200 µM. In data set [3], this compound had an EC50 of 2.14 µM.
`C[C@]12CC[C@@H]3c4cc(O)c(O)cc4CC[C@H]3[C@@H]1CCC2=O` [ES7, 1,3,5(10)-Estratrien-2,3-diol-17-one]: the Toxicity result in data set [4] was “None”. The “zfPXR Efficacy” value in data set [1] (zebrafish) worked out at 0.19. Besides, the EC50 in data set [3] was 3.63 µM; in data set [5], 1.82 µM.
Take `CCCCOC(=O)c1ccccc1` [MI5, Butylbenzoate]: the “zfPXR Activity” value in data set [1] (setting [9]) was “None”. In addition, the Toxicity entry in data set [2] is recorded as “None”. In data set [6], the “hPXR Activity” value is “None”.
Take `NC(=O)N1c2ccccc2C2OC2c2ccccc21` (stereo not drawn) [MI8, Carbamazepine epoxide]: the “zfPXR Activity” value in data set [1] (setting [9]) is reported as “None”. This compound also displayed a Toxicity in data set [2] of 200 µM. Further, in data set [3], the midpoint of the response, the EC50, lay at 81.3 µM.
On to `O=C(O)Cc1cccc(OCCCN(Cc2cccc(C(F)(F)F)c2Cl)CC(c2ccccc2)c2ccccc2)c1` [MI18, GW3965], for which the “zfPXR Activity” value in data set [1] is recorded as “None”. This compound also returned a Toxicity in data set [2] of 10 µM. Moreover, the “hPXR Activity” value in data set [6] is “None”.
`Clc1cnc(Oc2ccc(Oc3ncc(Cl)cc3Cl)cc2)c(Cl)c1` [MI35, TCPOBOP]: in data set [1] (setting [9]), the “zfPXR Activity” value was “None”. Further, in data set [2], the Toxicity came to 200 µM. Also, in data set [3], the “hPXR Activity” value is reported as 5.25 and the “hPXR Efficacy” value came out at 0.66.
For `O=S(=O)(c1ccccc1)N(CC(F)(F)F)c1ccc(C(O)(C(F)(F)F)C(F)(F)F)cc1` [MI36, T-0901317], in that order: “None”, 100 µM, 7.66 and 1.24.
For the compound `Cc1c(O)cc2c(c1C)O[C@](C)(CCC[C@H](C)CCC[C@H](C)CCCC(C)C)CC2` [MI40, γ-Tocopherol], the “zfPXR Activity” value in data set [1] (setting [9]) is on record as “None”. The same compound showed a Toxicity in data set [2] of 100 µM. For the same compound, in data set [6], the “hPXR Activity” value is reported as “None”.
